Assay results as given in patent US12551532B2, “Long-acting amylin receptor agonists and uses thereof” (Eli Lilly and Company, priority 2021, dated 2026).

Columns and labels:
human dendritic cells = format: cell-based
Method: MAPPS profiles the MHC-II presented peptides on human dendritic cells treated with tested molecules. CD14+ cells, isolated from the PBMCs of normal human donors, are cultured and differentiated into immature DCs by incubation with IL-4 and GM-CSF. On day 4, culture media is replaced with fresh media containing tested molecules. On day 5, LPS is added to transform the cells into mature DCs. On day 6, cells are lysed in RIPA buffer with protease inhibitors. Immunoprecipitation of MHC-II complexes are performed using biotinylated anti-MHC-II antibody coupled to streptavidin beads. The bound complex is eluted and filtered. The isolated MHC-II peptides are analyzed by a mass spectrometer. Peptide identifications are generated by an internal proteomics pipeline using search algorithms with no enzyme and a bovine/human database with test sequences appended to the database. A KNIME workflow is used to process the identification files from the samples. Peptides identified from the test articles are aligned against the parent sequence of the test molecule. The output is used to determine the percentage of donors displaying MHC-II peptides from regions of the test molecule. Compound II, Compound IV, Compound VI, Compound VIII, a compound representative of U.S. Pat. No. 9,023,789 (hereinafter “Compound '789”), and Pramlintide are tested in the MAPPs assay.

Method for CD4+ T cells: This assay assesses the ability of tested antibodies or tested MAPPS peptides to activate CD4+ T cells by inducing cellular proliferation. CD8+ T cell depleted PBMC's are prepared and labeled with CFSE. Each sample is tested with media control, keyhole limpet haemocyanin (KLH; positive clinical benchmark control), tested antibodies, or tested MAPPS peptides. Cultures are incubated for 7 days. On day 7, samples are analyzed by flow cytometry.

CC[C@H](C)[C@H](NC(=O)[C@@H]1CCCN1C(=O)CNC(=O)[C@H](Cc1ccccc1)NC(=O)[C@H](CC(N)=O)NC(=O)[C@H](CC(N)=O)NC(=O)[C@H](CO)NC(=O)[C@H](CO)NC(=O)[C@H](Cc1c[nH]cn1)NC(=O)[C@@H](NC(=O)[C@H](CC(C)C)NC(=O)[C@H](Cc1ccccc1)NC(=O)[C@H](CC(N)=O)NC(=O)[C@H](C)NC(=O)[C@H](CC(C)C)NC(=O)[C@H](CCCNC(=N)N)NC(=O)[C@H](CCC(N)=O)NC(=O)[C@@H](NC(=O)[C@H](C)NC(=O)[C@@H]1CSSC[C@H](NC(=O)[C@@H](N)CCCCN)C(=O)N[C@@H](CC(N)=O)C(=O)N[C@@H]([C@@H](C)O)C(=O)N[C@@H](C)C(=O)N[C@@H]([C@@H](C)O)C(=O)N1)[C@@H](C)O)C(C)C)C(=O)N[C@@H](CC(C)C)C(=O)N1CCC[C@H]1C(=O)N1CCC[C@H]1C(=O)N[C@H](C(=O)N[C@@H](CC(N)=O)C(=O)N[C@H](C(=O)NCC(=O)N[C@@H](CO)C(=O)N[C@@H](CC(N)=O)C(=O)N[C@H](C(=O)N[C@@H](Cc1ccc(O)cc1)C(N)=O)[C@@H](C)O)C(C)C)[C@@H](C)O [Compound XV, reference compound]
MAPPS Assay donors displayed peptides (human dendritic cells): 10/10
MAPPS Assay immunogenicity risk (human dendritic cells): High Risk
peptides displayed on MHC-II complexes (human dendritic cells): two peptide clusters that in total span residues 1-34
T Cell Proliferation Assay: protein, immunogenicity risk (CD4+ T cells): High Risk
T Cell Proliferation Assay: protein, positive donors (CD4+ T cells): (7/7 positive
